Test results as given in patent US20230053540A1, “TREATMENT OF LIVER INJURY” (Massachusetts Institute of Technology, priority 2019, published 2023).

Test system: hepatocytes
Experiment: Seq-Well scRNA-Seq of hepatocytes after APAP overdose (signature scores, DEG vs untreated)
Format: in vivo, mouse
[1] = hepatocyte cluster A96 (APAP, 96 h) vs all other clusters
[2] = hepatocytes, cluster A24 (APAP) vs other treatment clusters
[3] = hepatocytes, cluster A48 (APAP) vs other treatment clusters

CC(=O)Nc1ccc(O)cc1 [APAP, acetaminophen]
avg_logFC Fmo1 [1]: 0.2535
avg_logFC Gclm [1]: 0.269
avg_logFC Hamp2 [1]: 0.2597
avg_logFC Hsd17b7 [1]: 0.3023
avg_logFC Lcat [1]: 0.2519
avg_logFC Mocs2 [1]: 0.2666
avg_logFC Mtdh [1]: 0.2838
avg_logFC Ndufa3 [1]: 0.2765
avg_logFC Ndufb2 [1]: 0.3005
avg_logFC Nfe2l2 [1]: 0.2513
avg_logFC Oat [1]: 0.3213
avg_logFC Pabpc1 [1]: 0.2527
avg_logFC Pdk1 [1]: 0.2558
avg_logFC Prkd3 [1]: 0.2593
avg_logFC Ptp4a2 [1]: 0.2634
avg_logFC Rgn [1]: 0.291
avg_logFC Sdhc [1]: 0.2722
avg_logFC Sdhd [1]: 0.261
avg_logFC Slc4a4 [1]: 0.2916
avg_logFC Slc25a10 [1]: 0.2605
avg_logFC Tgoln1 [1]: 0.2968
avg_logFC Tmed5 [1]: 0.2563
avg_logFC Tmem106b [1]: 0.2604
avg_logFC Tob1 [1]: 0.301
avg_logFC Tsc22d3 [1]: 0.3181
avg_logFC Usmg5 [1]: 0.2565
avg_logFC Zfp91 [1]: 0.3255
AA474408 avg_logFC [2]: 0.4148
Abca1 avg_logFC [2]: 0.3831
Acox1 avg_logFC [2]: 0.2743
Acsl4 avg_logFC [2]: 0.299
Adh4 avg_logFC [2]: 0.392
Ak3 avg_logFC [2]: 0.2504
Aox3 avg_logFC [2]: 0.3489
Arcn1 avg_logFC [2]: 0.3044
Atp8b1 avg_logFC [2]: 0.361
Atp11c avg_logFC [2]: 0.2568
Atxn1 avg_logFC [2]: 0.325
Calm1 avg_logFC [2]: 0.3702
Calu avg_logFC [2]: 0.3005
Canx avg_logFC [2]: 0.2771
Cltc avg_logFC [2]: 0.3397
Cmah avg_logFC [2]: 0.4243
Copa avg_logFC [2]: 0.3334
Cps1 avg_logFC [2]: 0.2775
Ctnnb1 avg_logFC [2]: 0.329
Cyb5r3 avg_logFC [2]: 0.3097
Ddost avg_logFC [2]: 0.2909
Dhcr24 avg_logFC [2]: 0.2824
Dnajb11 avg_logFC [2]: 0.3288
Dnajc12 avg_logFC [2]: 0.324
Echdc1 avg_logFC [2]: 0.2818
Edem1 avg_logFC [2]: 0.2675
Efna1 avg_logFC [2]: 0.3161
Eif4g1 avg_logFC [2]: 0.2763
Eif4g2 avg_logFC [2]: 0.3515
Eprs avg_logFC [2]: 0.2513
Etnk1 avg_logFC [2]: 0.3194
Fam120a avg_logFC [2]: 0.2583
Fasn avg_logFC [2]: 0.2699
Fndc3b avg_logFC [2]: 0.3202
Fos avg_logFC [2]: 0.3632
Gjb2 avg_logFC [2]: 0.2998
Gm5424 avg_logFC [2]: 0.262
Gm24245 avg_logFC [2]: 0.414
Grlf1 avg_logFC [2]: 0.2556
Hnf4a avg_logFC [2]: 0.2549
Hs3st3b1 avg_logFC [2]: 0.3219
Hsd3b5 avg_logFC [2]: 0.3009
Hspa13 avg_logFC [2]: 0.342
Ibtk avg_logFC [2]: 0.2959
Il6st avg_logFC [2]: 0.3011
Il13ra1 avg_logFC [2]: 0.2889
Insig1 avg_logFC [2]: 0.4125
Kmo avg_logFC [2]: 0.2687
Lasp1 avg_logFC [2]: 0.2608
Lgr4 avg_logFC [2]: 0.2572
Lpgat1 avg_logFC [2]: 0.2525
Lrg1 avg_logFC [2]: 0.3096
Lrp1 avg_logFC [2]: 0.4837
Lrrc59 avg_logFC [2]: 0.2688
Met avg_logFC [2]: 0.2512
Mlec avg_logFC [2]: 0.3405
Mtss1 avg_logFC [2]: 0.2522
Mtus1 avg_logFC [2]: 0.3125
Mug2 avg_logFC [2]: 0.3166
Nab1 avg_logFC [2]: 0.2601
Nars avg_logFC [2]: 0.3127
Nedd4 avg_logFC [2]: 0.3305
Nr1d2 avg_logFC [2]: 0.3855
Nr5a2 avg_logFC [2]: 0.2599
Nrp1 avg_logFC [2]: 0.33
Ostc avg_logFC [2]: 0.3082
Prg4 avg_logFC [2]: 0.4007
Prkd3 avg_logFC [2]: 0.3041
Proz avg_logFC [2]: 0.28
Pten avg_logFC [2]: 0.2663
Ptprf avg_logFC [2]: 0.2888
Qsox1 avg_logFC [2]: 0.2817
Rab1 avg_logFC [2]: 0.3145
Rpn1 avg_logFC [2]: 0.3991
Rrbp1 avg_logFC [2]: 0.2968
Sdf2l1 avg_logFC [2]: 0.3078
Sec31a avg_logFC [2]: 0.2596
Sec61b avg_logFC [2]: 0.3008
Sel1l avg_logFC [2]: 0.2833
Sh3bgrl avg_logFC [2]: 0.2668
Slc3a1 avg_logFC [2]: 0.3074
Slc38a10 avg_logFC [2]: 0.2557
Spcs3 avg_logFC [2]: 0.3907
Srebf1 avg_logFC [2]: 0.3149
Srp72 avg_logFC [2]: 0.28
Srpr avg_logFC [2]: 0.2914
Ssr1 avg_logFC [2]: 0.3129
Stard4 avg_logFC [2]: 0.2922
Stt3b avg_logFC [2]: 0.2648
Tmed7 avg_logFC [2]: 0.3715
Tmem30a avg_logFC [2]: 0.3056
Trip12 avg_logFC [2]: 0.2832
Txndc5 avg_logFC [2]: 0.2758
Uggt1 avg_logFC [2]: 0.2805
Uso1 avg_logFC [2]: 0.3202
Usp4 avg_logFC [2]: 0.2959
Usp9x avg_logFC [2]: 0.3387
Zbtb20 avg_logFC [2]: 0.3135
Abcb4 avg_logFC [3]: 0.4425
Abcd2 avg_logFC [3]: 0.2813
Abhd14b avg_logFC [3]: 0.4059
Acad11 avg_logFC [3]: 0.3851
Agt avg_logFC [3]: 0.5795
Ahcy avg_logFC [3]: 0.34
Ahsg avg_logFC [3]: 0.3592
Aldh9a1 avg_logFC [3]: 0.3826
Aldob avg_logFC [3]: 0.4375
Ambp avg_logFC [3]: 0.286
Amy1 avg_logFC [3]: 0.4216
Angptl3 avg_logFC [3]: 0.6111
Apoa5 avg_logFC [3]: 0.4483
Apoc2 avg_logFC [3]: 0.8639
Apoc3 avg_logFC [3]: 0.407
Apoe avg_logFC [3]: 0.5049
Apoh avg_logFC [3]: 0.4628
Atp5b avg_logFC [3]: 0.3281
Atp5h avg_logFC [3]: 0.5978
Bfar avg_logFC [3]: 0.308
Bnip3 avg_logFC [3]: 0.462
Cdo1 avg_logFC [3]: 0.3971
Cebpb avg_logFC [3]: 0.3684
Ces1b avg_logFC [3]: 0.483
Ces1c avg_logFC [3]: 0.5488
Chchd10 avg_logFC [3]: 0.7517
Cox5a avg_logFC [3]: 0.4197
Cox8a avg_logFC [3]: 0.552
Cp avg_logFC [3]: 0.4274
Cyp4a10 avg_logFC [3]: 0.9326
Cyp4a14 avg_logFC [3]: 1.281
Dbp avg_logFC [3]: 0.2896
Ddb1 avg_logFC [3]: 0.3544
Decr1 avg_logFC [3]: 0.5669
Decr2 avg_logFC [3]: 0.4129
Ech1 avg_logFC [3]: 0.418
Echs1 avg_logFC [3]: 0.4649
Ephx2 avg_logFC [3]: 0.3869
F2 avg_logFC [3]: 0.3952
F10 avg_logFC [3]: 0.3927
F12 avg_logFC [3]: 0.388
Fah avg_logFC [3]: 0.3913
Fcgrt avg_logFC [3]: 0.4084
Fkbp5 avg_logFC [3]: 0.2572
Fth1 avg_logFC [3]: 0.375
Gabarap avg_logFC [3]: 0.4014
Gc avg_logFC [3]: 0.2979
Gltscr2 avg_logFC [3]: 0.3432
Gm6484 avg_logFC [3]: 0.4108
Gm23935 avg_logFC [3]: 0.4738
Grn avg_logFC [3]: 0.431
Gstt3 avg_logFC [3]: 0.3384
Gys2 avg_logFC [3]: 0.4231
Hdac11 avg_logFC [3]: 0.3557
Herpud1 avg_logFC [3]: 0.6044
Hmgcl avg_logFC [3]: 0.5501
Hmgcs2 avg_logFC [3]: 0.7687
Hpx avg_logFC [3]: 0.3851
Hrg avg_logFC [3]: 0.5316
Hsd17b13 avg_logFC [3]: 0.6221
Hspa8 avg_logFC [3]: 0.4107
Khk avg_logFC [3]: 0.5202
Lcat avg_logFC [3]: 0.5054
Lims2 avg_logFC [3]: 0.3761
Lpin1 avg_logFC [3]: 0.515
Mat1a avg_logFC [3]: 0.7753
Mfsd2a avg_logFC [3]: 0.6614
Mlycd avg_logFC [3]: 0.4378
Ndrg2 avg_logFC [3]: 0.3482
Nr1i3 avg_logFC [3]: 0.4759
Oaf avg_logFC [3]: 0.5021
P4hb avg_logFC [3]: 0.2981
Pabpc1 avg_logFC [3]: 0.4782
Plin5 avg_logFC [3]: 0.3985
Pnpla2 avg_logFC [3]: 0.3465
Prodh2 avg_logFC [3]: 0.5055
Rbp4 avg_logFC [3]: 0.3942
